Data taken from patent publication US20180140572A1, “COMPOSITIONS COMPRISING A CANCER STEMNESS INHIBITOR AND AN IMMUNOTHERAPEUTIC AGENT FOR USE IN TREATING CANCER” (Boston Biomedical, Inc., priority 2015, published 2018).

Experiments:
[1] = test system: β-CATENIN, NANOG, SMO, and SOX2; assay: Self-renewal gene expression in FaDu cancer stem cells; format: cell-based; parameters: dose or concentration left out as unconfirmed; details: 24 hours
[2] = test system: tumor-infiltrating T cells (TILs); assay: Tumor-infiltrating T cells in CT26 tumors (CD3 immunofluorescence); format: in vivo, mouse; details: vs control tumors
Excerpt: All BALB/c mice (Taconic, Hudson, N.Y., USA) were housed in Association for Assessment and Accreditation of Laboratory Animal Care approved facilities in static microisolator cages. Murine MSS-status colon carcinoma CT26 cells (ATCC CRL-2639) and murine breast carcinoma cells 4T1 (ATCC CRL-2539) were purchased from American Type Culture Collection (ATCC, Manassas, Va., USA), and grown in RPMI-1640 medium (ATCC) supplemented with 10% heat-inactivated fetal calf serum. After harvesting during exponential growth, tumors were initiated by subcutaneously implanting 3×10^5 CT26 tumor cells into the right dorsal flank of each 8-12 week old female BALB/c mouse. […] Body weight and clinical signs were monitored throughout the course of the treatment in accordance with the Institutional Animal Care and Use Committee approved protocols. Drug efficacy was analyzed by measuring tumor volume in mm^3 calculated by multiplying 0.5×width^2×length. […]
At the end of treatment, tumors were harvested from euthanized mice. […] After mounting in ProLong mounting medium containing DAPI (Invitrogen), the slides were examined on a Zeiss Axio Imager M2 upright fluorescence microscope with a 20× objective and analyzed with Zen software.

[3] = test system: IL-6 and other STAT3 target genes; assay: STAT3 target gene expression in HeLa cells; format: cell-based

## CC(=O)c1cc2c(o1)C(=O)c1ccccc1C2=O [BBI608, 2-acetylnaphtho[2,3-b]furan-4,9-dione]
[1]
  expression of self-renewal genes β-CATENIN, NANOG, SMO, and SOX2: decreased expression
[2]
  number of tumor-infiltrating T cells (TILs): tended to increase
[3]
  IL-6 and other STAT3 target genes expression: downregulated
